# Structures can show the parent of a compound that is named as a salt.
row,melting point [°C],Structure (SMILES)
1,121.5,COc1cc(Cl)nnc1NC1CCN(Cc2cc(F)cc(C(F)(F)F)c2)CC1
2,150.7,COc1cc(Cl)nnc1NC1CCN(Cc2cc(F)c(F)c(F)c2)CC1
3,211.3,COc1cc(C(F)(F)F)nnc1NC1CCN(Cc2cccc(C(F)(F)F)c2)CC1 (as salt: hydrochloride)
4,130.5,COc1cc(Cl)nnc1NC1CCN(Cc2ccc(F)c(F)c2)CC1

# Reference: US8906921B2, “4-alkoxypyridazine derivatives as fast dissociating dopamine 2 receptor antagonists” (Janssen Pharmaceutica NV, priority 2007, dated 2014)
